Patent US7109216B2 (priority 2001, dated 2006)
Read-outs that look alike come from different tables or passages of the source.

Legend:
CB1 receptor = CB1 receptor (Homo sapiens, UniProt P21554); settings: Meschler et al. 2000; cited from earlier work
[1] = molecular target: T1, human cannabinoid CB1 receptor (Homo sapiens, UniProt P21554); assay: biochemical; format: binding; set-up: expressed in transfected cells; host or cells: Chinese hamster ovary (CHO) cells, membrane preparation; settings: [3H]CP-55,940 radioligand, CHO cell membranes stably transfected with human CB1
Protocol: After incubation of a freshly prepared cell membrane preparation with the [^3H]-ligand, with or without addition of compounds of the invention, separation of bound and free ligand was performed by filtration over glassfiber filters. Radioactivity on the filter was measured by liquid scintillation counting.

[2] = molecular target: T1, human cannabinoid CB1 receptor; assay: Cannabinoid CB1 antagonistic activity, forskolin-induced cAMP accumulation in CHO cells; format: cell-based; set-up: expressed in transfected cells; host or cells: CHO cells
Protocol: The cannabinoid CB1 antagonistic activity of compounds of the invention was determined by functional studies using CHO cells in which human cannabinoid CB1 receptors were stably expressed. Adenylyl cyclase was stimulated using forskolin and measured by quantifying the amount of accumulated cyclic AMP. Concomitant activation of CB1 receptors by CB1 receptor agonists (e.g. CP-55,940 or (R)-WIN-55,212–2) can attenuate the forskolin-induced accumulation of cAMP in a concentration-dependent manner. This CB1 receptor-mediated response can be antagonized by CB1 receptor antagonists such as the compounds of the invention.

[3] = antagonism of CB1 agonist (e.g. CP-55,940 or (R)-WIN-55,212-2) effect on forskolin-induced cAMP accumulation, CHO cells expressing human CB1, read-out: hCB1 pA2 (converted)
[4] = antagonism of CB1 agonist (e.g. CP-55,940 or (R)-WIN-55,212-2) effect on forskolin-induced cAMP accumulation, CHO cells expressing human CB1

T1 sequence (P21554 whole entry): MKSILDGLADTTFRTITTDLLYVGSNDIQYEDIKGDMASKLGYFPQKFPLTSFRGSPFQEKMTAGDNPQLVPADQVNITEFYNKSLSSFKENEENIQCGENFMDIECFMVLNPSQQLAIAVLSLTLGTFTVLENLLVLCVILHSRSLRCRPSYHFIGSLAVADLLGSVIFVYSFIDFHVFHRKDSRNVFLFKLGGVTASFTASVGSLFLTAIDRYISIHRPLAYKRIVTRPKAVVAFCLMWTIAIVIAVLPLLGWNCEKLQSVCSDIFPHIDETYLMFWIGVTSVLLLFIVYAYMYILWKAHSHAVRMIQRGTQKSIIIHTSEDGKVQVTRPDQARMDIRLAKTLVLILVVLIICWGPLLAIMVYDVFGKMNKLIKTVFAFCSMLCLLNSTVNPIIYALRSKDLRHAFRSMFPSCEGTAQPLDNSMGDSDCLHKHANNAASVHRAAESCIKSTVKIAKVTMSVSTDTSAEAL
Chain of CB1 receptor (P21554 whole entry): as above

Row | Structure (SMILES) | CB1 receptor subtype selectivity compared with SR141716A (CB1 receptor) | potency compared with SR141716A (CB1 receptor) | Ki ([1]; hCB1 pKi) [nM] | melting point | Kb [2, 3] [nM] | Ki ([1]; read-out: hCB1 pKi (converted)) [nM] | Kb [2] [nM] | hCB1 pA2 [2, 4]
1 | COc1ccc(-c2c(C#N)c(C(=O)Nc3ccccc3)nn2-c2ccccc2Cl)cc1 [CP-272871] | less CB1 receptor subtype-selective | less potent | – | – | – | – | – | –
2 | O=C(NN1CCCCC1)c1cn(-c2ccc(C(F)(F)F)cc2)c(-c2ccc(Cl)cc2Cl)n1 [Example 46, 2-(2,4-dichlorophenyl)-N-(piperidin-1-yl)-1-(4-(trifluoromethyl)phenyl)-1H-imidazole-4-carboxamide] | – | – | 50.1 | > 200 °C (dec.) | 6.31 | – | – | –
3 | O=C(NC1CCCCC1)c1cn(-c2ccc(C(F)(F)F)cc2)c(-c2ccc(Cl)cc2Cl)n1 [Example 48, N-Cyclohexyl-2-(2,4-dichlorophenyl)-1-(4-(trifluoromethyl)phenyl)-1H-imidazole-4-carboxamide] | – | – | – | 199 to 200 °C | – | 316 | 0.251 | –
4 | Cc1c(C(=O)NN2CCCCC2)nc(-c2ccc(Cl)cc2Cl)n1-c1ccc(F)cc1 [Example 62, 2-(2,4-Dichlorophenyl)-1-(4-fluorophenyl)-5-methyl-N-(piperidin-1-yl)-1H-imidazole-4-carboxamide] | – | – | 31.6 | 223 to 224 °C | – | – | – | 7.7
5 | COc1ccc(-n2c(-c3ccc(Cl)cc3Cl)nc(C(=O)NN3CCCCC3)c2C)cc1 [Example 63, 2-(2,4-Dichlorophenyl)-5-methyl-1-(4-methoxyphenyl)-N-(piperidin-1-yl)-1H-imidazole-4-carboxamide] | – | – | 79.4 | > 90 °C (dec.) | 1 | – | – | –
6 | Cc1c(C(=O)NN2CC3CCCC3C2)nc(-c2ccc(Cl)cc2Cl)n1-c1ccc(Cl)cc1 (centres unmarked) [Example 81, 1-(4-Chlorophenyl)-2-(2,4-dichlorophenyl)-N-(hexahydrocyclopenta-[c]pyrrol-2(1H)-yl)-5-methyl-1H-imidazole-4-carboxamide] | – | – | 31.6 | 143 to 146 °C | – | – | – | 9.8
7 | Cc1c(C(=O)NC2CC3CCC2C3)nc(-c2ccc(Cl)cc2Cl)n1-c1ccc(Cl)cc1 (stereo not drawn) [Example 84, N-(Exo-bicyclo[2.2.1]hept-2-yl)-1-(4-chlorophenyl)-2-(2,4-dichlorophenyl)-5-methyl-1H-imidazole-4-carboxamide] | – | – | 15.8 | 194 to 195 °C | 1.26 | – | – | –
8 | Cc1c(C(=O)N[C@H]2CC[C@H](O)CC2)nc(-c2ccc(Cl)cc2Cl)n1-c1ccc(Cl)cc1 [Example 86, 1-(4-Chlorophenyl)-2-(2,4-dichlorophenyl)-N-(trans-4-hydroxycyclohexyl)-5-methyl-1H-imidazole-4-carboxamide] | – | – | 126 | 160 °C (dec.) | 15.8 | – | – | –
9 | Cc1c(C(=O)NN2CCCCCC2)nc(-c2ccc(Cl)cc2Cl)n1-c1ccc(Cl)cc1 [Example 92, N-(Azepan-1-yl)-1-(4-chlorophenyl)-2-(2,4-dichlorophenyl)-5-methyl-1H-imidazole-4-carboxamide] | – | – | 63.1 | 147 to 149 °C | 1.58 | – | – | –
10 | Cc1c(C(=O)NN2CCCC2)nc(-c2ccc(Cl)cc2Cl)n1-c1ccc(Cl)cc1 [Example 93, 1-(4-Chlorophenyl)-2-(2,4-dichlorophenyl)-5-methyl-N-(pyrrolidin-1-yl)-1H-imidazole-4-carboxamide] | – | – | 20 | 205 to 206 °C | – | – | – | 8.2
11 | Cc1c(C(=O)NN2CCOCC2)nc(-c2ccc(Cl)cc2Cl)n1-c1ccc(Cl)cc1 [Example 94, 1-(4-Chlorophenyl)-2-(2,4-dichlorophenyl)-5-methyl-N-(morpholin-4-yl)-1H-imidazole-4-carboxamide] | – | – | 100 | 225 °C (dec.) | – | – | – | 7.5
12 | Cc1c(C(=O)NCc2ccc(C(F)(F)F)cc2)nc(-c2ccc(Cl)cc2Cl)n1-c1ccc(Cl)cc1 [Example 106, 1-(4-Chlorophenyl)-2-(2,4-dichlorophenyl)-5-methyl-N-(4-(trifluoromethyl)benzyl)-1H-imidazole-4-carboxamide] | – | – | 100 | 232 °C | – | – | – | 8.9
13 | Cc1c(C(=O)NC2CCCC2)nc(-c2ccc(Cl)cc2Cl)n1-c1ccc(Cl)cc1 [Example 107, 1-(4-Chlorophenyl)-N-cyclopentyl-2-(2,4-dichlorophenyl)-5-methyl-1H-imidazole-4-carboxamide] | – | – | 158 | 172 °C | – | – | – | 8.9
14 | Cc1c(C(=O)NC2CCCCCC2)nc(-c2ccc(Cl)cc2Cl)n1-c1ccc(Cl)cc1 [Example 108, 1-(4-Chlorophenyl)-N-cycloheptyl-2-(2,4-dichlorophenyl)-5-methyl-1H-imidazole-4-carboxamide] | – | – | 7.94 | 154 to 156 °C | – | – | – | 9.1
15 | O=C(NN1CCCCC1)c1nc(-c2ccc(Cl)cc2Cl)n(-c2ccc(Cl)cc2)c1I [Example 111, 1-(4-Chlorophenyl)-2-(2,4-dichlorophenyl)-5-iodo-N-(piperidin-1-yl)-1H-imidazole-4-carboxamide] | – | – | 6.31 | 196 to 201 °C | 2.51 | – | – | –
16 | O=C(NN1CCCCC1)c1nc(-c2ccc(Cl)cc2Cl)n(-c2ccc(Cl)cc2)c1Br [Example 117, 1-(4-chlorophenyl)-2-(2,4-dichlorophenyl)-5-bromo-N-(piperidin-1-yl)-1H-imidazole-4-carboxamide] | – | – | 10 | 181.5 to 183 °C | 2.51 | – | – | –
17 | CS(=O)(=O)c1c(C(=O)NN2CCCCC2)nc(-c2ccc(Cl)cc2Cl)n1-c1ccc(Cl)cc1 [Example 118, 1-(4-Chlorophenyl)-2-(2,4-dichlorophenyl)-5-methylsulfonyl-N-(piperidin-1-yl)-1H-imidazole-4-carboxamide] | – | – | 15.8 | 181 to 185 °C (dec.) | – | – | – | 8.5
18 | CSc1c(C(=O)NN2CCCCC2)nc(-c2ccc(Cl)cc2Cl)n1-c1ccc(Cl)cc1 [Example 120, 1-(4-Chlorophenyl)-2-(2,4-dichlorophenyl)-5-methylsulfanyl-N-(piperidin-1-yl)-1H-imidazole-4-carboxamide] | – | – | 12.6 | 170 °C (dec.) | 0.631 | – | – | –
